# Where a name gives a salt, the structure may show the parent alone.
# Tests used:
# [1] = tested on: retinal hypoxia, oxygen-induced retinopathy (OIR) mice; test: Imaging of retinal hypoxia in the mouse OIR model; format: in vivo
# Protocol: Mouse pups and their dams were placed in 75% oxygen from P7 to P12 according to the OIR oxygen treatment protocol.^27 On P12, litters were removed to room air and after 2 hours, HYPDX-4 (60 mg/kg in PBS) was administered by intraperitoneal injection. Twenty-four hours post-injection, in vivo HYPDX-4-dependent fluorescence imaging was performed. Briefly, mice were anesthetized with ketamine/xylazine, eyes were dilated with 1% tropicamide and placed on a warm platform, and fluorescent and bright field fundus images were acquired using the Micron IV retinal-imaging system (Phoenix Research Laboratories; Pleasanton, Calif.). Then, ex vivo imaging of HYPDX-4 dependent fluorescence was performed. The mice were sacrificed, enucleated, and the globes were fixed in 10% neutral buffered formalin (NBF). Retinas were dissected and stained directly with Alexa Fluor 647-conjugated isolectin B4 then flat-mounted on a microscope slide with Prolong Gold mounting medium (Life Technologies, Grand Island, N.Y.). Images were captured using an epifluorescence ‘Nikon Eclipse Ti-E’ inverted microscope (Melville, N.Y.).
# Some mice received intraperitoneal injections of pimonidazole hydrochloride at a concentration of 60 mg/kg body weight two hours after removal to the room air; they were sacrificed and enucleated one hour later. The globes were fixed in 10% NBF for 2 hours; retinas were dissected and washed with tris-buffered saline (TBS), then they were blocked/permeabilized in 10% donkey serum with 1% Triton X-100/0.05% Tween 20 in TBS for 6 hours, and stained with an antibody against pimonidazole-adducts followed by the secondary anti-rabbit IgG conjugated to Alexa Fluor 647- and Alexa Fluor 488-conjugated isolectin B4. The retinas were mounted on microscope slides with Prolong Gold mounting medium. Ex vivo images were captured using an epifluorescence ‘Nikon Eclipse Ti-E’ inverted microscope.
# [2] = physchem
# Protocol: A mixture of Octanol (500 uL) and water (500 uL) was added to HYPDX-4 (173 μg), or Pimonidazole Free base (742 μg) or Pimonidazole HCl (1 mL, 50 mg/mL) in an eppendorf tube and gently mixed in a rotator for 2 days. The aqueous and octanol layers were separated and the Optical Density (OD) was measured in microplate spectrophotometer instrument. The amount of HYPDX-4, Pimonidazole Free base and Pimonidazole HCl was calculated from the standard curve.
# [3] = tested on: human Müller cells (MIO-M1); test: Pimonidazole-adduct immunodetection of hypoxia in MIO-M1 cells; format: cell-based; conditions: MIO-M1, 100 μM, 4 hours
# Protocol: (§1) ARPE-19 cells were cultured in DMEM/F12 supplemented with 10% Fetal Bovine Serum, 1× GlutaMAX, and 1× Gentamicin/Amphotericin B. MIO-M1 and R28 cells were cultured in low glucose DMEM supplemented with 10% Fetal Bovine Serum, 1× GlutaMAX, and 1× Penicillin-Streptomycin. Cells were maintained in a humidified environment with 5% CO2 at 37° C. unless otherwise noted. The cells were cultured in 96 microwell plates, with HYPDX-4 concentrations ranging from 10 to 100 μM in complete medium, or 100 μM pimonidazole hydrochloride in complete medium. To establish a hypoxic environment, the cells were placed into a humidified hypoxic chamber and flushed with a mixture of 95% N2 and 5% CO2, at a flow rate of 20 L/min for 5 min according to manufacturer instructions. The chamber was clamped and placed at 37° C. for the duration of the treatment. The oxygen level was monitored using the Traceable™ Dissolved Oxygen Meter Pen (Fisher Scientific; Pittsburg, Pa.). To confirm induction of hypoxia, cells were treated with 100 μM pimonidazole hydrochloride diluted in complete medium, subjected to hypoxia or normoxia for 4 hours and immunostained for pimonidazole-adducts according to manufacturer's protocol.
# [4] = tested on: retinal hypoxia, laser-induced retinal vein occlusion (RVO) mice; test: Imaging of retinal hypoxia in the mouse RVO model; format: in vivo; conditions: for pattern of retinal hypoxia image in RVO retina: HYPDX-4-dependent imaging versus pimonidazole-adduct immunostaining, 60 mg/kg i.p.
# Protocol: Laser-induced retinal vein occlusion was performed as previously described.^31 Briefly, C57BL/6 female mice were anesthetized by intraperitoneal injection of ketamine/xylazine and the eyes were dilated using 1% tropicamide. A phosphate buffered solution of 39.31 mM rose bengal (4,5,6,7-tetrachloro-2′,4′,5′,7′-tetraiodo-fluorescein disodium salt, certified purity, 95%; Sigma, St. Louis, Mo.) was sterilized by passage through a 0.22-μm filter, and tail vein injected at a dose of 40 mg/kg. An argon laser photocoagulator (green light) mounted on a slit-lamp (Space Coast Laser Inc. Palm Bay, Fla.) was used to create retinal vein-occlusion (50-μm spot size, 1-second duration, 50 mW). Three laser applications were required to completely stop the blood flow as determined by observing the fundus image with a slit-lamp microscope. In each fundus, only one or two veins was/were photocoagulated to create retinal ischemia. Two hours post-RVO, mice were divided into two groups and received intraperitoneal injection of the HYPDX-4 (60 mg/kg body weight) or pimonidazole hydrochloride (60 mg/kg body weight). Twenty-two hours post-injection of HYPDX-4, in vivo HYPDX-4 dependent fluorescence imaging was performed. The mice were anesthetized with ketamine/xylazine, dilated with 1% tropicamide, and placed on a warm platform; TRITC-Dextran 500 (Sigma, St. Louis, Mo.) was injected systemically at a dose of 20 mg/kg; and fluorescent and bright field fundus images were acquired using the Micron IV retinal-imaging system. Mice were sacrificed, enucleated and the globes were fixed in 10% NBF. HYPDX-4-dependent fluorescence was imaged ex vivo as previously described in the OIR section. For the pimonidazole hydrochloride-injected group, the animals were sacrificed one hour after injection, enucleated and the globes were fixed in 10% NBF. The retinas were processes and ex vivo images were captured as described above for mouse OIR.
# [5] = tested on: R28 cells; test: In vitro hypoxia-induced HYPDX-4-dependent fluorescence assay, R28 cells; format: cell-based, rat
# Protocol: as §1, with “To confirm induction of hypoxia, cells were treated with 100 μM pimonidazole hydrochloride diluted in complete medium, subjected to hypoxia or normoxia for 4 hours and immunostained for pimonidazole-adducts according to manufacturer's protocol.” left out
# (§2) ARPE-19, MIO-M1 were seeded at 20,000 and R28 at 15,000 cells per well, respectively, in a 96-well black plate with a clear bottom. […] Fluorescence intensity was measured ([…]: 490 nm, Emission: 520 nm) using a microplate reader (Biotek; Winooski, Vt.).
# [6] = tested on: retina of RA mice; test: Electroretinography (ERG) measurements; format: in vivo, mouse; conditions: 100 mg/kg systemic, dark-adapted mice, 7 days post administration, various flash intensities
# Protocol: ERG measurements were performed according to previously published methods.^32,33 Briefly, ERG analysis was performed on mice injected with HYPDX-4 (100 mg/kg) at one week post-injection. Animals were dark adapted overnight, anesthetized with ketamine/xylazine, dilated with 1% tropicamide, and placed on a warm platform within the Ganzfeld dome of a Diagnosys LLC Espion Electrophysiology system (Lowell, Mass., USA). Mice were exposed to flashes of light ranging from −4 to 2 log cd·s/m^2 and the amplitudes of a-wave and b-wave were measured from baseline to peak. The amplitude of the a-wave and b-wave were plotted as a function of luminance.
# [7] = tested on: R28 cells; test: Cell viability assay (BrdU incorporation), R28 cells; format: cell-based, rat; conditions: R28, 0-100 μM, 24 h
# Protocol: (§3) Retinal cell-lines were treated with HYPDX-4 (100 μM) and the viability was measured using the bromodeoxyUridine (BrdU) incorporation assay according to the manufacturers protocol. Briefly, retinal cells were seeded in a 96-well plate for twenty four hours and serum starved for 6 hours. Then, cells were treated with HYPDX-4 and vehicle controls diluted in complete media and allowed to incubate for 24 h. Four hours prior to the end of the incubation, BrdU was added at a concentration of 10 μM and incorporation of BrdU was quantified by ELISA with the BrdU cell viability ELISA kit (Exalpha Biologicals; Shirley, Mass.).
# [8] = tested on: retinal cross sections from RA mice; test: TUNEL assay in retinal cross sections; format: in vivo, mouse; conditions: retinal cross sections from treated mice, DNase I positive control
# Protocol: TUNEL assays were performed using Click-iT in situ apoptosis detection kit (Life Technology, USA). The mouse eyes were enucleated and fixed by immersing in 10% NBF for 25 minutes at 4° C. Then, they were fresh frozen in 30% sucrose and embedded in TissueTec OCT for cryosectioning (7 μm sections). The retinal cross-sections were then stained for fragmented DNA by incorporating alkyne-modified EdUTP nucleotide followed by detection with Alexafluor 647 azide in apoptotic cells. Retinal cross-sections were treated with DNase I as the positive control.
# [9] = In vitro stability (photostability) in solution, kinetic fluorescence; format: physicochemical; conditions: phosphate buffer, 100 nM, 37° C., ex 490 nm / em 520 nm
# Protocol: HYPDX-4 was dissolved in phosphate buffer at a concentration of 100 nM and fluorescence was monitored at excitation maximum 490 nm and emission at 520 nm.
# [10] = Solubility in aqueous solvents, buffers and cell-culture medium; format: physicochemical; conditions: neat water or saline, PBS, DMEM with 10% FBS; read-out: soluble at a concentration
# [11] = tested on: MIO-M1 cells; test: In vitro hypoxia-induced HYPDX-4-dependent fluorescence assay, MIO-M1 cells; format: cell-based, human; conditions: MIO-M1, 0.1% oxygen, 10 μM to 100 μM
# Protocol: as §1, with “To confirm induction of hypoxia, cells were treated with 100 μM pimonidazole hydrochloride diluted in complete medium, subjected to hypoxia or normoxia for 4 hours and immunostained for pimonidazole-adducts according to manufacturer's protocol.” left out
# as §2
# [12] = tested on: R28 cells; test: In vitro imaging of R28 cells using HYPDX-4; format: cell-based, rat
# Protocol: R28 cells were seeded at a density of 45,000 cells per well in 3 wells of 4-well chamber slides. When cells were 90% confluent, 2 wells were treated with HYPDX-4 in complete medium, and one well was treated with pimonidazole hydrochloride diluted in complete medium. The cells were cultured in hypoxia or normoxia for 4 hours. Cells were washed 3 times with HBSS, fixed with 10% neutral buffered formalin (NBF) for 10 minutes at room temperature, washed 3 times with TBS and mounted with Prolong Gold with DAPI mounting media. Pimonidazole-adducts were immunostained according to manufacturer's protocol. HYPDX-4 dependent fluorescence images were taken using an epifluorescence microscope.
# [13] = tested on: ARPE-19 cells; test: In vitro hypoxia-induced HYPDX-4-dependent fluorescence assay, ARPE-19 cells; format: cell-based, human; conditions: ARPE-19, 0.1% oxygen, 10 μM to 100 μM
# Protocol: as §1, with “To confirm induction of hypoxia, cells were treated with 100 μM pimonidazole hydrochloride diluted in complete medium, subjected to hypoxia or normoxia for 4 hours and immunostained for pimonidazole-adducts according to manufacturer's protocol.” left out
# as §2
# [14] = tested on: MIO-M1 cells; test: Cell viability assay (BrdU incorporation), MIO-M1 cells; format: cell-based, human; conditions: MIO-M1, 0-100 μM, 24 h
# Protocol: as §3
compound,measurement,setting,value
"O=[N+]([O-])c1nccn1CC(O)CN1CCCCC1 (stereo not drawn) [Pimonidazole HCl, reference compound]",pimonidazole immunostaining of retinal hypoxia in OIR pups,"[1]; 60 mg/kg i.p., ex vivo, sacrificed one hour later",confirmed
same,logP at 2 days,[2],-2.06
same,"pimonidazole-adduct fluorescence, hypoxic cells",[3]; hypoxia,Significant fluorescence enhancement
same,"pimonidazole-adduct fluorescence, normoxic cells",[3]; normoxia,minimal fluorescence signal
same,pattern of retinal hypoxia image in RVO retina,[4],patchy
CCN1/C(=C/C=C/C=C/C2=[N+](CCCCS(=O)(=O)[O-])c3ccc4ccccc4c3C2(C)C)C(C)(C)c2cc(CC(=O)NCC3CCN(CC(O)Cn4ccnc4[N+](=O)[O-])CC3)ccc21 (stereo not drawn) [HYPDX-4],HYPDX-4-dependent fluorescence in OIR retina,"[1]; OIR pups, 60 mg/kg i.p. on P12, imaging 24 hours post-injection, central avascular retina",detected in vivo as well as ex vivo
same,HYPDX-4 dependent fluorescence in room air control retina,"[1]; age matched RA (P13) control pups, same treatment",undetectable
same,"retinal layers showing HYPDX-4-dependent fluorescence (hypoxia), cross sections",[1]; ex vivo retinal transverse sections from OIR pups,inner plexiform and inner nuclear layers
same,HYPDX-4-dependent fluorescence versus oxygen concentration,"[5]; 100 μM, oxygen 0.1% to 20.9%, 4 hours",maximal at 0.1% oxygen
same,"HYPDX-4 dependent fluorescence, dose dependence","[5]; R28, 0.1% oxygen, 10 μM to 100 μM",optimal signal to noise ratios at the 100 μM dose
same,logP at 2 days,[2],-2.58
same,ERG mean a-wave amplitudes versus vehicle (PBS) and sodium fluorescein,[6],no significant changes in mean a-wave amplitudes
same,ERG mean b-wave amplitudes versus vehicle (PBS) and sodium fluorescein,[6],no significant changes in mean b-wave amplitudes
same,cell viability (BrdU incorporation),[7],did not affect cell viability
same,retinal cell apoptosis (TUNEL),[8],No apoptosis was observed
same,"photostability in solution, duration",[9],at least 24 hours
same,solubility,[10],≥ 100 µM
same,"HYPDX-4 dependent fluorescence, dose dependence",[11],optimal signal to noise ratios at the 100 μM dose
same,"cellular fluorescence imaging, hypoxic cells","[12]; R28, 100 μM, 0.1% oxygen, 4 hours","Hypoxia-specific, HYPDX-4-dependent fluorescence activity"
same,"cellular fluorescence imaging, normoxic cells","[12]; R28, normoxia",Minimal
same,"HYPDX-4 dependent fluorescence, dose dependence",[13],optimal signal to noise ratios at the 100 μM dose
same,cell viability (BrdU incorporation),[14],did not affect cell viability
same,HYPDX-4-dependent fluorescence in RVO retina,"[4]; 60 mg/kg i.p. two hours after occlusion, imaging 22 hours post-injection",detected downstream and laterally from the occlusion
same,pattern of retinal hypoxia image in RVO retina,[4],more confluent image of retinal hypoxia

# — US10695446B2, “Composition and method for detecting hypoxia” (Vanderbilt University, priority 2015, dated 2020)
